Common to all, as to conditions: pH 7.4; 25 °C
The target in one experiment is Histamine H4 receptor (Homo sapiens, UniProt Q9H3N8). The experiment can be described thus: H4R Radioligand Binding Assay. The method, then:
Ligand displacement assays were performed on CHO cells membranes expressing hH4R. Retained radioactivity was determined by liquid scintillation counting. Nonspecific binding was determined in the presence of 10 uM histamine. The Ki values were calculated based on an experimentally determined appropriate Kd value according to Cheng and Prusoff.

The target in experiment [1] is T1, Histamine H3 receptor (Homo sapiens, UniProt Q9Y5N1). Briefly: Radioligand Binding Assay and Functional [35S]GTP-gamma-S Binding Assay. Here is the method: Ligand displacement assays were performed on CHO cells membranes expressing hH3R. Retained radioactivity was determined by liquid scintillation counting. Nonspecific binding was determined in the presence of 1 uM thioperamide. The Ki values were calculated based on an experimentally determined appropriate Kd value according to Cheng and Prusoff. EC50 is a measure of functional property of compound on [35S]GTP-gamma-S binding to membranes expressing H3R receptors.
T1 sequence (Q9Y5N1 whole entry): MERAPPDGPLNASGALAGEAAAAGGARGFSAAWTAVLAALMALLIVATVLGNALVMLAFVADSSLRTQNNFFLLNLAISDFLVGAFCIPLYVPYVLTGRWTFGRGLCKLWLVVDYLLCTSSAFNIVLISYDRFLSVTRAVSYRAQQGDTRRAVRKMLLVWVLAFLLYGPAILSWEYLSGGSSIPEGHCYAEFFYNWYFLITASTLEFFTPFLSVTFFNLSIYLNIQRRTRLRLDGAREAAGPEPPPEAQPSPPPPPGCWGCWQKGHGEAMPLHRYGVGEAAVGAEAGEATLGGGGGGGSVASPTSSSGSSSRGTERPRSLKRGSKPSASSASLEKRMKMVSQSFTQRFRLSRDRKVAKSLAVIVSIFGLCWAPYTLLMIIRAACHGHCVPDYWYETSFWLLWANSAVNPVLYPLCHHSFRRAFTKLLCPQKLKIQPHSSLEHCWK
A general note: GTPγS resists hydrolysis and so accumulates on activated G proteins.

For experiment [2], the target named is T1, Histamine H3 receptor. The experiment can be described thus: H3R Radioligand Binding Assay.

Ki data for five molecules are collected here from BindingDB's records for doi:10.1021/jm7014149 (Vu University Amsterdam, 2008).

Sequence of Histamine H4 receptor (Q9H3N8 whole entry): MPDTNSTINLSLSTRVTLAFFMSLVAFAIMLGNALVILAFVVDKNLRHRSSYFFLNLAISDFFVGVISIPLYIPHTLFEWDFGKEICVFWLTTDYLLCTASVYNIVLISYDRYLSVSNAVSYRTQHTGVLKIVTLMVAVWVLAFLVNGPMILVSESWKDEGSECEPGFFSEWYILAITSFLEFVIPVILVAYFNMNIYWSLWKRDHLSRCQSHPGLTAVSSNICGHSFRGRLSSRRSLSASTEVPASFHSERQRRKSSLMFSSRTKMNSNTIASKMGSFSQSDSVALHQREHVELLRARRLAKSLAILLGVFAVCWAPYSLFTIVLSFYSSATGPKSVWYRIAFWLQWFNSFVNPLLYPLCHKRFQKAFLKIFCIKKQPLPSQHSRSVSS

A word on the Ki: it is a measure of affinity in units of concentration, obtained from inhibition or displacement. A low value points to higher affinity. Take `CC(C)(C)C#Cc1cccc(Cc2c[nH]cn2)c1` [4-{[3-(3,3-dimethylbut-1-yn-1-yl)phenyl]methyl}-1H-imidazole]: the Ki on Histamine H4 receptor was determined as 6 nM; on Histamine H3 receptor [1] it was 4 nM. `CCCC#Cc1cccc(Cc2c[nH]cn2)c1` [4-{[3-(pent-1-yn-1-yl)phenyl]methyl}-1H-imidazole]: the Ki at Histamine H3 receptor [2] was 3 nM. Same read-out and setting: as for `C(#Cc1cccc(Cc2cnc[nH]2)c1)c1ccccc1` [4-{[3-(2-phenylethynyl)phenyl]methyl}-1H-imidazole], the figure is 2 nM.

Molecule `CC1CC(C)(C)N=C(c2cccc(Cc3c[nH]cn3)c2)O1` (stereo unspecified) [2-[3-(1H-imidazol-4-ylmethyl)phenyl]-4,4,6-trimethyl-5,6-dihydro-4H-1,3-oxazine] registered a Ki at Histamine H3 receptor [1] of 1 nM. As to `CC(C)(C)CC(=O)c1cccc(Cc2cnc[nH]2)c1` [1-[3-(1H-imidazol-4-ylmethyl)phenyl]-3,3-dimethylbutan-1-one], the Ki at Histamine H4 receptor worked out at 6 nM.
